Experimental data: patent US20240197650A1, “Combination of Cinnamaldheyde and Eugenol with Antimycotic Activity” (priority 2021, published 2024)
Converted amounts (≈) assume the structure as drawn.

Experiments:
[1] = test system: C. glabrata; assay: Microdilution method MIC/MFC, C. glabrata strains; type: cell-based
Description: (§1) A total of eighteen strains belonging to Candida spp. (15 C. albicans, 2 C. glabrata and 1 C. lusitaniae) derived from a collection of vaginal strains isolated in CHROMAgar Candida (BD Italia SpA, Milan, Italy) were grown on Potato Dextrose Agar (Oxoid Thermofisher SpA, Milan, Italy) at 35° C. for 24 hours.
(§2) The antifungal activity of amphotericin B and of cinnamaldheyde and eugenol were tested with the microdilution method as reported by Bona et al. [Bona et al., Sensitivity of Candida albicans to essential oils: are they an alternative to antifungal agents? J Appl Microbiol. 2016 December, 121(6): 1530-1545] with small changes. All the 18 Candida spp strains were tested. For each isolated, the colonies deriving from cultures (24 hours) in PDA were diluted in saline up to a concentration of 2×10^3 CFU/ml (so obtaining a final concentration of 10 3CGU/ml). Cinnamaldehyde and eugenol were dissolved in DMSO (80% oil, 20% DMSO), then diluted in Sabouraud broth up to a concentration of 8% v/v (so obtaining a final concentration of 4% v/v). Then, in a 96-well microtiter plate ½ serial dilution of amphotericin B (range 32-0.032 μg/ml, for a final range of 16-0.016 μg/ml) and of the essential oils (range 8-0.004% v/v, for a final range of 4-0.002% v/v) were carried out. Each well was then injected with 100 μl of cell suspension. The negative control contained DMSO diluted in Sabouraud broth (at 2% v/v, for a final concentration of 1% v/v). […] Each experiment was carried out in duplicate. The Minimum Inhibitory Concentration (MIC) was determined as the concentration of the oils in the first well which is not cloudy. The Minimum Fungicidal Concentration (MFC) was determined as the lowest concentration of the oils, with the agar culture showing the complete absence of fungal growth. The determination of the amphotericin B MIC was carried out also according to the EUCAST guidelines (cutoff 1 μg/ml) [https://eucast.org/astoffungi/clinicalbreakpointsforantifungals], all the results being consistent.

[2] = test system: C. glabrata; assay: Disk diffusion method, C. glabrata strains; type: cell-based
Description: as §1
(§3) Colonies were re-suspended in sterile saline at a density corresponding to #0.5 McFarland (opacity standard). #0.5 McF correspond to 1.4×10^6 colony forming units (CFU)/ml for C. albicans, 4.3×10^6 CFU/ml for C. glabrata and 3×10^6 CFU/ml for C. lusitaniae [Guinea J. et al., Rapid antifungal susceptibility determination for yeast isolates by use of Etest performed directly on blood samples from patients with fungemia, J Clin Microbiol. 2010 June, 48(6): 2205-12]. Then, the sensitivity test vs the two oils has been performed. The disk diffusion method was carried out as follows: for each tested strain, 4 plates of Potato Dextrose Agar (PDA) were seeded in 3 directions to produce a confluent growth, by sterile swab soaked in the cell suspension. Sorbent paper disks (Oxoid Thermofisher SpA, Milan, Italy) 6.0 mm diameter were placed on the agar surface and added with 10 μl of each essential oil. Disks soaked with 10 μg amphotericin B were used as positive control. Also disks of chlortrimazole (from 10 μg to 40 μg) were used, but the inhibition rings could not be clearly read due to the formation of a re-growth ring. Disks soaked with 10 μl pure dimethylsulphoxide (DMSO, Sigma-Aldrich, St. Louis, MO, USA) were used as negative control. The plates were incubated at 35° C. for 24 hours. All the experiments were carried out in duplicate. The inhibiting effect of the oils were considered to be effective when the inhibition ring was equal or greater than that caused by amphotericin B. For amphotericin B, an inhibition zone (IZ)≥15 mm was considered as “sensitivity”, from 10 to 14 mm as “intermediate sensitivity” and <10 mm as “resistance” [Kauser et al., Agreement of Direct Antifungal Susceptibility Testing from Positive Blood Culture Bottles with Conventional Method for Candida Species, J Clin Microbiol. 2016 February, 54(2):343-34].

[3] = test system: Candida spp.; assay: Microdilution method MIC/MFC, 18 Candida spp. strains (distribution); type: cell-based; settings: 18 strains
Description: as §1, §2

[4] = test system: C. lusitaniae; assay: Microdilution method MIC/MFC, C. lusitaniae strain; type: cell-based; settings: C. lusitaniae 1
Description: as §1, §2

[5] = test system: C. albicans; assay: Microdilution method MIC/MFC, C. albicans strains; type: cell-based
Description: as §1, §2

[6] = test system: C. albicans; assay: Disk diffusion method, C. albicans strains; type: cell-based
Description: as §1, §3

[7] = test system: Candida spp.; assay: Disk diffusion method, 18 Candida spp. strains (distribution); type: cell-based
Description: as §1, §3

[8] = test system: C. lusitaniae; assay: Disk diffusion method, C. lusitaniae strain; type: cell-based; settings: C. lusitaniae 1
Description: as §1
Colonies were re-suspended in sterile saline at a density corresponding to #0.5 McFarland (opacity standard). #0.5 McF correspond to 1.4×10^6 colony forming units (CFU)/ml for C. albicans, 4.3×10^6 CFU/ml for C. glabrata and 3×10^6 CFU/ml for C. lusitaniae [Guinea J. et al., Rapid antifungal susceptibility determination for yeast isolates by use of Etest performed directly on blood samples from patients with fungemia, J Clin Microbiol. 2010 June, 48(6): 2205-12]. Then, the sensitivity test vs the two oils has been performed. The disk diffusion method was carried out as follows: for each tested strain, 4 plates of Potato Dextrose Agar (PDA) were seeded in 3 directions to produce a confluent growth, by sterile swab soaked in the cell suspension. Sorbent paper disks (Oxoid Thermofisher SpA, Milan, Italy) 6.0 mm diameter were placed on the agar surface and added with 10 μl of each essential oil. Disks soaked with 10 μg amphotericin B were used as positive control. Also disks of chlortrimazole (from 10 μg to 40 μg) were used, but the inhibition rings could not be clearly read due to the formation of a re-growth ring. Disks soaked with 10 μl pure dimethylsulphoxide (DMSO, Sigma-Aldrich, St. Louis, MO, USA) were used as negative control. The plates were incubated at 35° C. for 24 hours. All the experiments were carried out in duplicate. […]

[9] = Additional essential oils in combination with cinnamaldehyde or eugenol; settings: antimycotic activity
[10] = 18 strains, disk 10 μl oil or 10 μg amphotericin B, 35° C. 24 hours

Work on `C[C@@H]1[C@H](O)[C@@H](C)/C=C/C=C/C=C/C=C/C=C/C=C/C=C/[C@H](O[C@@H]2O[C@H](C)[C@@H](O)[C@H](N)[C@@H]2O)C[C@@H]2O[C@](O)(C[C@@H](O)C[C@@H](O)[C@H](O)CC[C@@H](O)C[C@@H](O)CC(=O)O[C@H]1C)C[C@H](O)[C@H]2C(=O)O` [Amphotericin B, amphotericin B, reference compound] yielded an MFC ([1]; C. glabrata 1) of 0.064 µg/mL (≈ 0.0693 µM), an MIC ([1]; C. glabrata 1) of 0.032 µg/mL (≈ 0.0346 µM) and an MFC ([1]; C. glabrata 2) of 0.125 µg/mL (≈ 0.135 µM). The MIC ([1]; C. glabrata 2) was 0.125 µg/mL (≈ 0.135 µM), the “Diameters of the inhibition rings (including 6.0 mm of the disk)” value (“Diameters of the inhibition rings” below) ([2]; C. glabrata 1) was 15.0 mm and the “Diameters of the inhibition rings” value ([2]; C. glabrata 2) was 11.0 mm. It also gave an MFC average [3] of 0.11 µg/mL (≈ 0.119 µM), an MIC average [3] of 0.052 µg/mL (≈ 0.0563 µM) and an MFC [4] of 0.250 µg/mL (≈ 0.271 µM). For the same molecule, the MIC [4] was 0.125 µg/mL (≈ 0.135 µM), the MFC ([5]; C. albicans 1) was 0.064 µg/mL (≈ 0.0693 µM) and the MIC ([5]; C. albicans 1) was 0.032 µg/mL (≈ 0.0346 µM). For the same molecule, the MFC ([5]; C. albicans 2) was 0.064 µg/mL (≈ 0.0693 µM), the MIC ([5]; C. albicans 2) was 0.032 µg/mL (≈ 0.0346 µM) and the MFC ([5]; C. albicans 3) was 0.064 µg/mL (≈ 0.0693 µM). For the same molecule, the MIC ([5]; C. albicans 3) was 0.032 µg/mL (≈ 0.0346 µM), the MFC ([5]; C. albicans 4) was 0.125 µg/mL (≈ 0.135 µM) and the MIC ([5]; C. albicans 4) was 0.032 µg/mL (≈ 0.0346 µM). The MFC ([5]; C. albicans 5) was 0.250 µg/mL (≈ 0.271 µM), the MIC ([5]; C. albicans 5) was 0.016 µg/mL (≈ 0.0173 µM) and the MFC ([5]; C. albicans 6) was 0.064 µg/mL (≈ 0.0693 µM). For the same molecule, the MIC ([5]; C. albicans 6) was 0.032 µg/mL (≈ 0.0346 µM), the MFC ([5]; C. albicans 7) was 0.064 µg/mL (≈ 0.0693 µM) and the MIC ([5]; C. albicans 7) was 0.032 µg/mL (≈ 0.0346 µM). For the same molecule, the MFC ([5]; C. albicans 8) was 0.032 µg/mL (≈ 0.0346 µM), the MIC ([5]; C. albicans 8) was 0.016 µg/mL (≈ 0.0173 µM) and the MFC ([5]; C. albicans 9) was 0.250 µg/mL (≈ 0.271 µM). It also gave an MIC ([5]; C. albicans 9) of 0.125 µg/mL (≈ 0.135 µM), an MFC ([5]; C. albicans 10) of 0.032 µg/mL (≈ 0.0346 µM) and an MIC ([5]; C. albicans 10) of 0.032 µg/mL (≈ 0.0346 µM). The MFC ([5]; C. albicans 11) was 0.250 µg/mL (≈ 0.271 µM), the MIC ([5]; C. albicans 11) was 0.125 µg/mL (≈ 0.135 µM) and the MFC ([5]; C. albicans 12) was 0.016 µg/mL (≈ 0.0173 µM). For the same molecule, the MIC ([5]; C. albicans 12) was no more than 0.016 µg/mL, the MFC ([5]; C. albicans 13) was 0.125 µg/mL (≈ 0.135 µM) and the MIC ([5]; C. albicans 13) was 0.064 µg/mL (≈ 0.0693 µM). It also gave an MFC ([5]; C. albicans 14) of 0.125 µg/mL (≈ 0.135 µM), an MIC ([5]; C. albicans 14) of 0.032 µg/mL (≈ 0.0346 µM) and an MFC ([5]; C. albicans 15) of 0.064 µg/mL (≈ 0.0693 µM). The MIC ([5]; C. albicans 15) was 0.032 µg/mL (≈ 0.0346 µM), the “Diameters of the inhibition rings” value ([6]; C. albicans 1) was 13.0 mm and the “Diameters of the inhibition rings” value ([6]; C. albicans 2) was 15.5 mm. For the same molecule, the “Diameters of the inhibition rings” value ([6]; C. albicans 3) was 16.0 mm, the “Diameters of the inhibition rings” value ([6]; C. albicans 4) was 19.5 mm and the “Diameters of the inhibition rings” value ([6]; C. albicans 5) was 16.0 mm. For the same molecule, the “Diameters of the inhibition rings” value ([6]; C. albicans 6) was 16.0 mm, the “Diameters of the inhibition rings” value ([6]; C. albicans 7) was 16.0 mm and the “Diameters of the inhibition rings” value ([6]; C. albicans 8) was 20.5 mm. The “Diameters of the inhibition rings” value ([6]; C. albicans 9) was 12.0 mm, the “Diameters of the inhibition rings” value ([6]; C. albicans 10) was 15.0 mm and the “Diameters of the inhibition rings” value ([6]; C. albicans 11) was 14.5 mm. For the same molecule, the “Diameters of the inhibition rings” value ([6]; C. albicans 12) was 16.5 mm, the “Diameters of the inhibition rings” value ([6]; C. albicans 13) was 16.0 mm and the “Diameters of the inhibition rings” value ([6]; C. albicans 14) was 19.0 mm. For the same molecule, the “Diameters of the inhibition rings” value ([6]; C. albicans 15) was 15.5 mm, the “inhibition rings diameter, average (including 6.0 mm of the disk)” value [7, 10] was 15.4 mm and the “inhibition rings diameter, range (including 6.0 mm of the disk)” value [7, 10] was 10-20.5 mm. For the same molecule, the “category of the inhibition rings” value ([7]; all 18 strains, confirmed by microdilution) was ““sensitivity” or “intermediate sensitivity”” and the “Diameters of the inhibition rings” value [8] was 10.0 mm.

For `CC1=CCC2CC1C2(C)C` (stereo not drawn) [α-pinene], the “advantage when administered in combination with cinnamaldehyde or eugenol” value [9] was “did not show any advantage”.
